Laboratory results taken from ChEMBL document CHEMBL1269003, “Design and synthesis of tetrahydropyridothieno[2,3-d]pyrimidine scaffold based epidermal growth factor receptor (EGFR) kinase inhibitors: the role of side chain chirality and Michael acceptor group for maximal potency” (J Med Chem, 2010).
Activity calls are given as the source filed them. No cut-off for these calls is given here.

Legend:
[1] = Antiproliferative activity against human HCC827 cells by MTS assay
[2] = target: T1, Epidermal growth factor receptor (Homo sapiens, UniProt P00533)
[3] = test system: Epidermal growth factor receptor (Homo sapiens), P00533 [L858R,T790M]; conditions: 10 uM
[4] = target: Epidermal growth factor receptor (Homo sapiens, UniProt P00533, L858R/T790M)
[5] = target: T1, Epidermal growth factor receptor; conditions: 20 uM
HCC827 [6] = assay: Antitumor activity against human HCC827 cells xenografted in mouse assessed as reduction of tumor growth at 100 mg/kg, iv for 5 days a week measured after 2 weeks; format: functional, organism-based; parameters: dose 100 mg/kg
[7] = target: T1, Epidermal growth factor receptor; assay: Inhibition of EGFR at 20 uM
HCC827 [8] = assay: Antitumor activity against human HCC827 cells xenografted in mouse assessed as reduction of tumor growth at 5 to 15 mg/kg, iv for 5 days a week measured after 2 weeks; format: functional, organism-based
Rattus norvegicus = assay: Half life in Sprague-Dawley rat at 5 mg/kg, iv; format: ADME, organism-based; parameters: dose 5 mg/kg, route intravenous; conditions: in vivo
[9] = AUC (0 to infinity) in Sprague-Dawley rat at 5 mg/kg, iv; format: ADME, organism-based; parameters: time infinity, dose 5 mg/kg, route intravenous; conditions: plasma

Chain of Epidermal growth factor receptor (Homo sapiens, UniProt P00533, L858R/T790M) (P00533 25-1210 T790M/L858R limits assumed): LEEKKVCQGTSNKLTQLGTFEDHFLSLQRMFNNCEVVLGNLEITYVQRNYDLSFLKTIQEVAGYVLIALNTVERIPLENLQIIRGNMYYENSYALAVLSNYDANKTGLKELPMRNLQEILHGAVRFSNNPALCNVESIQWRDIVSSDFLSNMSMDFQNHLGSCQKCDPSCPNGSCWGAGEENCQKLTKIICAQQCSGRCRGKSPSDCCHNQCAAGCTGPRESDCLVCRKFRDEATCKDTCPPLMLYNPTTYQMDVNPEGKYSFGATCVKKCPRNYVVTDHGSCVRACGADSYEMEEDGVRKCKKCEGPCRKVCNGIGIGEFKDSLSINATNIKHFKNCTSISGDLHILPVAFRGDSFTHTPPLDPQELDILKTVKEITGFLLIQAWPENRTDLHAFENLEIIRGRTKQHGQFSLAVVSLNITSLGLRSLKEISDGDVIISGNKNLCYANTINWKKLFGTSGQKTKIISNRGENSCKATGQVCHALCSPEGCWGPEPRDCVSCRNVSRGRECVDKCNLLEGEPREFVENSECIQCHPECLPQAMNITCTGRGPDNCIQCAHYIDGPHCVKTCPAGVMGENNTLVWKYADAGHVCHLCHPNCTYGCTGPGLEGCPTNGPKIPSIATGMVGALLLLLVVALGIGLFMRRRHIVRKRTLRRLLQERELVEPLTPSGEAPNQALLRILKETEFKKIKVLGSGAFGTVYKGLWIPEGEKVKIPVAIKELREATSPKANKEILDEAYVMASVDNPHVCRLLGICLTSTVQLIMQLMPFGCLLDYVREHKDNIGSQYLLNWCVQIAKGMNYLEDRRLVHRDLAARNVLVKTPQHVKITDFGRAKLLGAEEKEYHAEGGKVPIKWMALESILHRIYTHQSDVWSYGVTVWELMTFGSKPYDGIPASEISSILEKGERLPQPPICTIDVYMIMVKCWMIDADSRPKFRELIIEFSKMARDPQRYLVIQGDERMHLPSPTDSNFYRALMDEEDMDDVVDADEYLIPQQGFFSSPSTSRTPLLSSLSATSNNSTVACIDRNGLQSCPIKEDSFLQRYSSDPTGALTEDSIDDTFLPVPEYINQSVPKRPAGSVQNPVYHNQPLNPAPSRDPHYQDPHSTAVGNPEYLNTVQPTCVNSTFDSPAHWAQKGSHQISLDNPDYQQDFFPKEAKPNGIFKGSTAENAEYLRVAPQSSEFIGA
T1 sequence (P00533 whole entry): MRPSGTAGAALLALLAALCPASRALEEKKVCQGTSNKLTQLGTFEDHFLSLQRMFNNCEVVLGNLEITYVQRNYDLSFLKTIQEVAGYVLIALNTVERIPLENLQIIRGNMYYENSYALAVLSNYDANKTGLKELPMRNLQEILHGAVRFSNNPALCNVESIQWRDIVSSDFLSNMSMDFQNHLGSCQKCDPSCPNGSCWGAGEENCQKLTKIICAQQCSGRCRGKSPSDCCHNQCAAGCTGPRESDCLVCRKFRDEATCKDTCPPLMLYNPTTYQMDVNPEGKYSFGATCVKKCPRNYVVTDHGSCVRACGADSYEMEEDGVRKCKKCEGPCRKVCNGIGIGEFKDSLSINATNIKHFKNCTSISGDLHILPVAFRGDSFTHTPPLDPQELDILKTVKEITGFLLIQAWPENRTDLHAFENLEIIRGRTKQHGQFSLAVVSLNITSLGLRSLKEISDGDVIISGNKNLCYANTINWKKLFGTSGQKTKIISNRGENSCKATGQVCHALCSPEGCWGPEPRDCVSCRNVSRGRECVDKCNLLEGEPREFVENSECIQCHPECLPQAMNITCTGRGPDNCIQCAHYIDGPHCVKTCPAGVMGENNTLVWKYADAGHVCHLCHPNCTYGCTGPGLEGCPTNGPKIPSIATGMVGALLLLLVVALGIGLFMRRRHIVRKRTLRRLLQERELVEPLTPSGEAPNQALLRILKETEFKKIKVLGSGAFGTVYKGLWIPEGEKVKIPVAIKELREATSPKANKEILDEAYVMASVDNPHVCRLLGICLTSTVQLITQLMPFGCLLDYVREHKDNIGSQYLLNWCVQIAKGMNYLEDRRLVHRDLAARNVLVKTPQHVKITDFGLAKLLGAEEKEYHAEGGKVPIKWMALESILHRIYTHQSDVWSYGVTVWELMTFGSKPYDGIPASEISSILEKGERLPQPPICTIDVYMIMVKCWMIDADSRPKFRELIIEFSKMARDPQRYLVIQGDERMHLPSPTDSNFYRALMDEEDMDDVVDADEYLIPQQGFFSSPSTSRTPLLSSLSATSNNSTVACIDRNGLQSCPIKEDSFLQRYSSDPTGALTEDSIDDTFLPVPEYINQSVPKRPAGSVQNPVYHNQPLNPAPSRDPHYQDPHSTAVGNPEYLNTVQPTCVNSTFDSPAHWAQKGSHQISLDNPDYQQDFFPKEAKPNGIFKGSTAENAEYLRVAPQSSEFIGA
Chain of Epidermal growth factor receptor (Homo sapiens), P00533 [L858R,T790M] (P00533 whole entry T790M/L858R, looked up): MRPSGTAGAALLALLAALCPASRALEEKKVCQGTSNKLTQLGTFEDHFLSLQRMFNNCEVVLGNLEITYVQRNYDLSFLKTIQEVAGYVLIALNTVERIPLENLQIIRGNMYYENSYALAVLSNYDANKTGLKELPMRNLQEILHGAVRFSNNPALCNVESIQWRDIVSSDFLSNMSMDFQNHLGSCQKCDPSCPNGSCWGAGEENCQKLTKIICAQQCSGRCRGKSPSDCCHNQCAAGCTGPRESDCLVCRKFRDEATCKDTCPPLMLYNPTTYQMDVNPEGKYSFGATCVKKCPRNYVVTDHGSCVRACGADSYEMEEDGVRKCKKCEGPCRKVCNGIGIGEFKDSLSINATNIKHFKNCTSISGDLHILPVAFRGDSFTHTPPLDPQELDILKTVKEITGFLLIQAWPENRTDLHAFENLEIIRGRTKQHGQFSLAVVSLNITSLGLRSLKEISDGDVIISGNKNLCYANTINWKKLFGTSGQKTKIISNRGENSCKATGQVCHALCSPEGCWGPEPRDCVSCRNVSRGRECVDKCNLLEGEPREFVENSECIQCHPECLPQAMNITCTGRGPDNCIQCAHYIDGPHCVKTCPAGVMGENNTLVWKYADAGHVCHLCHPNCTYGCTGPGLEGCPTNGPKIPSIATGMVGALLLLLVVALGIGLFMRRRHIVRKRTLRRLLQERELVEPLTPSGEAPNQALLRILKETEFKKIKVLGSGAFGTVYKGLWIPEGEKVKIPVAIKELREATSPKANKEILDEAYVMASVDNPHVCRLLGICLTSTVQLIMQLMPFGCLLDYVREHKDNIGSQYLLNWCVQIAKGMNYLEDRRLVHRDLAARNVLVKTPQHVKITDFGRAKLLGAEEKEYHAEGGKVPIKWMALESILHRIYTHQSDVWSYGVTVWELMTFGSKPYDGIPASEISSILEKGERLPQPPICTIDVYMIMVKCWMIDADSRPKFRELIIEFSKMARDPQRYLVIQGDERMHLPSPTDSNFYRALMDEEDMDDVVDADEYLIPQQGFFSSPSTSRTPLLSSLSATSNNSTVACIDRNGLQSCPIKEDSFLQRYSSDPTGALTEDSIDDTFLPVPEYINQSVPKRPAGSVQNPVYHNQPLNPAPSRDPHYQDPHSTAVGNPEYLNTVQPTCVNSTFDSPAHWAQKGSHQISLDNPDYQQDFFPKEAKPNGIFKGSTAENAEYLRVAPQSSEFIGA

IC50 [2] | inhibition [3] | IC50 [4] | Structure (SMILES) | IC50 [1] | other results
1090 nM | – | – | OC[C@@H](Nc1ncnc2sc3c(c12)CCC3)c1ccccc1 | 324 nM | –
1270 nM | < 50% | > 10000 nM | CC#CC(=O)N1CCc2c(sc3ncnc(N[C@H](CO)c4ccccc4)c23)C1 | – | –
3060 nM | < 50% | – | C=CC(=O)N1CCc2c(sc3ncnc(N[C@@H](CO)c4ccccc4)c23)C1 | – | –
– | – | – | c1ccc(CNc2ncnc3sc4c(c23)CCC4)cc1 | – | inhibition [5]: 69.1%
– | < 50% | – | c1ccc(CNc2ncnc3sc4c(c23)CCCC4)cc1 | > 10000 nM | inhibition [5]: 76.9%
– | – | – | COc1ccc(CNc2ncnc3sc4c(c23)CCCC4)cc1 | – | inhibition [5]: 1.1%
9 nM | – | 930 nM | CCN(CC)C/C=C/C(=O)N1CCc2c(sc3ncnc(NC(CO)c4ccccc4)c23)C1 (single isomer, unassigned) | 8 nM | –
20 nM | – | 739 nM | C=CC(=O)N1CCc2c(sc3ncnc(N[C@H](C)c4ccccc4)c23)C1 | 19 nM | –
149 nM | – | 4110 nM | CN(C)C/C=C/C(=O)N1CCc2c(sc3ncnc(NC(CO)Cc4ccccc4)c23)C1 (single isomer, unassigned) | 32 nM | –
– | – | – | COc1cc2ncnc(Nc3ccc(F)c(Cl)c3)c2cc1OCCCN1CCOCC1 | – | Activity (HCC827 [6]): Active
3500 nM | < 50% | – | O=C(/C=C/c1ccccc1)N1CCc2c(sc3ncnc(N[C@H](CO)c4ccccc4)c23)C1 | – | –
– | < 50% | – | CCC(=O)N1CCc2c(sc3ncnc(N[C@H](CO)c4ccccc4)c23)C1 | – | IC50 [7]: > 20000 nM
– | < 50% | – | CN(C)C/C=C/C(=O)N1CCc2c(sc3ncnc(N[C@@H](CO)c4ccccc4)c23)C1 | – | IC50 [7]: > 20000 nM
21 nM | – | 1400 nM | O=C(/C=C/CN1CCOCC1)N1CCc2c(sc3ncnc(NC(CO)c4ccccc4)c23)C1 (single isomer, unassigned) | 4 nM | –
– | – | – | OC[C@@H](Nc1ncnc2oc(-c3ccccc3)c(-c3ccccc3)c12)c1ccccc1 | 518 nM | –
12 nM | – | 596 nM | C[C@@H](Nc1ncnc2sc3c(c12)CCN(C(=O)/C=C/CN(C)C)C3)c1ccccc1 | 2 nM | –
– | – | – | OC[C@H](Nc1ncnc2sc3c(c12)CCCC3)c1ccccc1 | – | IC50 [7]: > 20000 nM
89 nM | < 50% | – | CN1CCN(C/C=C/C(=O)N2CCc3c(sc4ncnc(N[C@H](CO)c5ccccc5)c34)C2)CC1 | 38 nM | –
46 nM | – | 2200 nM | C=CC(=O)N1CCc2c(sc3ncnc(N[C@H](CC)c4ccccc4)c23)C1 | 24 nM | –
– | < 50% | – | OC[C@@H](Nc1ncnc2sc3c(c12)CCNC3)c1ccccc1 | – | IC50 [7]: > 20000 nM
91 nM | – | 2480 nM | C=CS(=O)(=O)N1CCc2c(sc3ncnc(N[C@H](CO)c4ccccc4)c23)C1 | 273 nM | –
– | – | – | Fc1ccc(CNc2ncnc3sc4c(c23)CCCC4)cc1 | – | inhibition [5]: 52.7%
70 nM | – | 305 nM | CN(C)C/C=C/C(=O)N1CCc2c(sc3ncnc(N[C@H](CO)c4ccccc4)c23)C1 | 2 nM | Activity (HCC827 [8]): Active; t1/2 (Rattus norvegicus): 1.4 h; AUC(0-inf) [9]: 337 ng·h/mL
> 3240 nM | – | – | C[C@@H](Nc1ncnc2sc3c(c12)CCCC3)c1ccccc1 | – | –
– | – | – | OCCNc1ncnc2sc3c(c12)CCCC3 | – | IC50 [7]: > 20000 nM
720 nM | < 50% | – | OC[C@@H](Nc1ncnc2sc3c(c12)CCCC3)c1ccccc1 | 198 nM | –
4880 nM | < 50% | – | CN(C)C/C=C/C(=O)N1CCc2c(sc3ncnc(NCCO)c23)C1 | – | –
– | – | – | c1ccc(CCNc2ncnc3sc4c(c23)CCCC4)cc1 | – | inhibition [5]: 44.3%
8 nM | – | 100 nM | C=CC(=O)N1CCc2c(sc3ncnc(N[C@H](CO)c4ccccc4)c23)C1 | 3 nM | –
